The results in this text go back to patent US4537774A, “Hot-water extracts of neem bark” (priority 1980, dated 1985).

Values after ≈ are worked out from the molar mass of the structure shown. Starred links: 1 amine or outer side, 2 acyl side, 3 side chain; linkers in the order of their positions; H or OH if unused. Positions of bridges follow the written chain, without caps; N, C: chain ends. Non-standard residues stand in square brackets, D forms with d. Residues, ends and D or L forms follow the SMILES beside them. Chains are numbered I, II in the order given. Actinocin(9to1) = Cc1c2oc3c(C)ccc(C(=O)[*:1])c3nc-2c(C(=O)[*:2])c(N)c1=O; NMeV = CN[C@H](C(=O)O)C(C)C; Sar = CNCC(=O)O

One assay has as its system sarcoma 180 solid tumor. Nature of the assay: Effects on sarcoma 180 solid tumor (Test IV). In kind it is in vivo, mouse. The settings on record: for Rating / T/C (%): Table IV; for T/C (%): tumor weight ratio. As to the method:
Test materials were prepared in the same manner as in Test III under (1).
A cell suspension containing 1×10^8 cells per ml. was prepared in the same way as in Test III under (2). Four week old-ICR mice was innoculated subcutaneously on the back with 0.1 ml. of the suspension by means of a syringe.
As in Test III under (3), a group of 6 animals was used for each concentration of each test material.
Grown tumor tissue was resected on the […] of the tumor cell transplantation and weighed. An average for the group of 6 animals was taken for the evaluation. The effect was evaluated on the basis of ratio of the average weight for the treated animals to that of the control animals (T/C). […] Ratios (T/C) of 100-71% were rated ineffective (-), of 70-51% plus 1 (+), of 50-21% plus 2 (++), and of 20-0% plus 3 (+++).
(§1) The neem extracts produced in the above examples were tested for effects on sarcoma 180 ascites and solid tumors according to the methods described in the aforementioned Tests.

Assay [1] concerns sarcoma 180 ascites tumor. Put plainly: Effects on sarcoma 180 ascites tumor (Test III). In kind it is in vivo, mouse. The settings on record: for Rating / T/C (%): Table III, i.p.; for T/C (%): TPCV ratio. As to the method:
A portion of each of the extraction fractions was suspended or dissolved in 0.5% suspension of carboxymethylcellulose (CMC) in a phosphate buffer saline solution (PBS commercially available from GIBCO Laboratories, containing ca. 9.5 mM phosphate) to a predetermined concentration.
Mouse sarcoma 180 tumor cells which have been subcultivated intraperitoneally in ICR mice were drawn from the mouse together with the ascites and diluted with physiological saline solution to a cell count of 10^8 per ml. The tumor cell suspension thus prepared was transplanted by means of a syringe intraperitoneally into 4 week-old male ICR mice at a dose of 0.1 ml. Consequently, the cell count transplanted per mouse was 1×10^7.
The test material as prepared above was intraperitoneally administered at a dose of 0.1 ml. per mouse for 4 days once a day from the next day of the transplantation of mouse sarcoma 180 tumor cells. A group of 6 mice was employed for each concentration of each test material. […] As a control was administered the CMC-containing PBS as described above only in the same way as above. The dose is expressed as weight per kg. bodyweight of mouse.
On the 7th day of transplantation of the tumor cells bodyweight of each mouse was measured (X). Then, ascites was thoroughly drawn from the mouse, followed by measurement of the bodyweight (Y). X-Y is taken as the amount of ascites.
The drawn ascites was then introduced into a hematocrit tube and then centrifuged at 15,000 G for 5 minutes using a hematocrit rotor at a low temperature. There was thus made determination of the ascitocrit value, that is, proportion of the cells present in the ascites which corresponded to the hematocrit value in hematology. The value multiplied by volume of the ascites gives the volume of the cells present in the ascites. This is designated as total packed cell volume (TPCV).
Effect on the tumor was rated ineffective (-) when the TPCV ratio of the treated to the control (T/C) was 100-66%, plus 1 (+) when it was 65-41%, plus 2 (++) when it was 40-11%, and plus 3 (+++) when it was 10-0%.
as §1

The next assay concerns mouse L-5178Y cells. Nature of the assay: Effects on mouse L-5178Y cells (Test II). In kind it is cell-based. As to the method: A medium containing 1×10^5 cells/ml. was prepared using mouse L-5178Y cells cultivated on RPMI-1640 medium containing 10% fetal bovine serum for 3 days. The medium was placed in a 96-well U-type microplate in an amount of 50 μl. per well.
A portion of the test material, which was one of the extracts according to the invention described in the above examples, was dissolved in the medium to a final concentration in the medium as shown in Table II below. The amount of the solution per well was 50 μl. The test material thus prepared was incubated in a carbon-dioxide incubator at 37° C. for 2 days. After completion of the incubation, the cells were collected and counted well by well, and the cell counts were compared with cell count of control which contained no test material. The cell count of control was approximately 8.6×10^5 /ml. In order to confirm the effects of the test materials, the same test was done with mitomycin C (MMC) or bleomycin (BLM). In the table below, T/C represents the ratio of count of the cells treated with the test material to that with no test material added. ID50 is the concentration of the test material required for decreasing concentration of the cells to 1/2 that of the control.

Where [2] appears, read: dose 0.1 μg./kg. (so in the source).
[3] abbreviates: dose 33 μg./kg. (so in the source).
Setting [4] is: dose 20 μg./kg. (so in the source).
Setting [5] is: Tables V/VII, mice, 1.5 mg./kg.
Setting [6] is: dose 0.5 μg./kg. (so in the source).
Where [7] appears, read: dose 1.5 μg./kg. (so in the source).
[8] abbreviates: dose 10 μg./kg. (so in the source).

`Cc1c2oc3c(C)ccc(C(=O)N[C@@H]4C(=O)N[C@H](C(C)C)C(=O)N5CCC[C@H]5C(=O)N(C)CC(=O)N(C)[C@@H](C(C)C)C(=O)O[C@@H]4C)c3nc-2c(C(=O)N[C@@H]2C(=O)N[C@H](C(C)C)C(=O)N3CCC[C@H]3C(=O)N(C)CC(=O)N(C)[C@@H](C(C)C)C(=O)O[C@@H]2C)c(N)c1=O` [ACD, actinomycin D] (I: T[dV]P[Sar][NMeV] / II: T[dV]P[Sar][NMeV]; ester I:1-I:C, II:1-II:C; linker I:N-II:N via Actinocin(9to1)): in the assay on sarcoma 180 solid tumor (dose 0.1 mg./kg.), the Rating result is given as “- (Ratios (T/C) of 100-71% were rated ineffective (-))” and the “T/C (%)” value was found to be 102.4%. For the same molecule, in assay [1] (setting [2]), the Rating result was “+++ (plus 3 (+++) when it was 10-0%)” and the “T/C (%)” value came to 0%.

`O=P1(N(CCCl)CCCl)NCCCO1` (stereo not drawn) [CYP, cyclophosphamide]: in the assay on sarcoma 180 solid tumor (dose 33 mg./kg.), the Rating result is “+++ (of 20-0% plus 3 (+++))” and the “T/C (%)” value is 0%. In addition, in assay [1] (setting [3]), the Rating entry is “+++ (plus 3 (+++) when it was 10-0%)” and the “T/C (%)” value came to 0%.

On to `O=c1[nH]cc(F)c(=O)[nH]1` [Example 5-Fu, 5-fluorouracil], for which the values for the Rating entry (with sarcoma 180 solid tumor (dose 20 mg./kg.); in assay [1] (setting [4])) were “+ (of 70-51% plus 1 (+))” and “+++ (plus 3 (+++) when it was 10-0%)”, respectively. The “T/C (%)” value is recorded as 47.8% in the assay with sarcoma 180 solid tumor (dose 20 mg./kg.) and 0% in assay [1] (setting [4]).

Take `CO[C@@]12[C@H](COC(N)=O)C3=C(C(=O)C(C)=C(N)C3=O)N1C[C@@H]1N[C@@H]12` [MMC, mitomycin C]: in the assay on sarcoma 180 solid tumor (dose 0.5 mg./kg.), the Rating result is reported as “- (Ratios (T/C) of 100-71% were rated ineffective (-))” and the “T/C (%)” value turned out to be 71.0%. In the assay with sarcoma 180 solid tumor (dose 1.5 mg./kg.), the Rating result is reported as “++ (of 50-21% plus 2 (++))” and the “T/C (%)” value was determined as 32.5%. Further, in the assay with sarcoma 180 solid tumor (setting [5]), the “Solid tumor Rating” value is on record as “++ (of 50-21% plus 2 (++))” and the “Solid tumor T/C” value is given as 38.9. Further, the IC50 in the assay on mouse L-5178Y cells (Mus musculus, L5178Y, 48 h, read-out: ID50) turned out to be 0.09 µg/mL (≈ 0.269 µM). In assay [1] (setting [6]), the Rating entry is on record as “+++ (plus 3 (+++) when it was 10-0%)” and the “T/C (%)” value was 0%. In assay [1] (setting [7]), the Rating result is given as “+++ (plus 3 (+++) when it was 10-0%)” and the “T/C (%)” value is reported as 0%. Further, in assay [1] (setting [5]), the “Ascites tumor Rating” value was “+++ (plus 3 (+++) when it was 10-0%)” and the “Ascites tumor T/C” value came out at 0.

For bleomycin [BLM], in the assay with sarcoma 180 solid tumor (dose 10 mg./kg.), the Rating result is listed as “++ (of 50-21% plus 2 (++))” and the “T/C (%)” value was 43.5%. Further, the ID50 in the assay on mouse L-5178Y cells (37° C., 2 days) was determined as 7.8 µg/mL. For the same molecule, in assay [1] (setting [8]), the Rating result is “+++ (plus 3 (+++) when it was 10-0%)” and the “T/C (%)” value is reported as 0%.
